Columns and labels:
PI3Kγ = PI3Kγ (Homo sapiens, UniProt P48736); assay: ADP-Glo luminescent assay, enzymatic activity of PI3K gamma; type: biochemical; conditions: ATP 25 μM; read-out: PI3K gamma (nM) inhibitory activity (IC50)
Method: The compounds would be tested from 1 or 10 μM, 3-fold dilution for 10 doses, in duplicate.
Compound preparation: Dilute a compound to 100× of the final desired highest inhibitor concentration in reaction by 100% DMSO. Transfer 100 μl of this compound dilution to a well in a 96-well plate and serially dilute it with DMSO for a total of 10 concentrations.
Kinase reaction: Prepare a solution of PI3K in 1× kinase buffer at 2-fold the final concentration of each reagent in the assay. Control wells contain 1× kinase buffer without enzyme. Prepare substrate solution of PIP2 substrate and ATP in 1× kinase reaction buffer at 2-fold of the final concentration. Add concentration substrate solution to each well to the final concentration. Cover the assay plate, shake to mix, and incubate at room temperature for 1 hour. Add 5 μl of ADP-Glo reagent to each well to stop the reaction. […] Add 10 ul Kinase Detection Reagent to each well, shake 1 min, equilibrate for 30 min before reading on a luminescence plate reader.
Data Analysis: Convert RLU values to percent inhibition values as Percent inhibition=(max−sample RLU)/(max−min)*100. “min”—no enzyme control; “max”—DMSO control. Fit the data in XLFit excel add-in version 5.4.0.8 to obtain IC50 values. Y=Bottom+(Top−Bottom)/(1+(IC50/X)^HillSlope).

PI3K gamma = target: T1, PI3K gamma (Mus musculus, UniProt Q9JHG7); assay: Raw264.7 cell assay: phosphorylation of AKT in C5a stimulated RAW264.7 cells (AlphaLISA); type: cell-based; conditions: pAKT, read-out: PI3K gamma Raw264.7 cell (nM) cellular activity (IC50)
T1 construct: endogenous in cells; host or cells: RAW264.7
Method: This study aims to determine the inhibitory effect of compounds on PI3K gamma and PI3K delta in corresponding cell based assays. PI3K gamma activity was reflected by phosphorylation of AKT in C5a stimulated RAW264.7 cells, and PI3K delta activity was reflected by phosphorylation of AKT in anti-IgM stimulated Raji cells. Phosphorylation of AKT in cells was determined using AlphaLISA technology from PerkinElmer.
Raw264.7 cell assay: Prepare Passage 15 Raw264.7 cell and add 6 μL of 30K cells per well in 384-well plate by multidrop. Centrifuge at 500 RPM for 30 s and incubate for 2 hours at 37° C., 5% CO2. Add 30 nL compound by echo and incubate for 30 min at 37° C., 5% CO2. […] Add 2 μL of 5× lysis buffer by multidrop, incubate for 10 min on a plate shaker. Add 5 μL acceptor mix provided in the kit, centrifuge at 1000 RPM for 1 min. Add 5 μL donor mix provided in the kit, centrifuge at 1000 RPM for 1 min and incubate in dark for 2 hours at 25° C. Read AlphaLISA signal on Envision.
Y=Bottom+(Top−Bottom)/(1+10^((Log IC50−X)*Hill Slope)) X: Log of cpd concentration Y: Inhibition

PI3Kγ, sequence (P48736 whole entry, species assumed): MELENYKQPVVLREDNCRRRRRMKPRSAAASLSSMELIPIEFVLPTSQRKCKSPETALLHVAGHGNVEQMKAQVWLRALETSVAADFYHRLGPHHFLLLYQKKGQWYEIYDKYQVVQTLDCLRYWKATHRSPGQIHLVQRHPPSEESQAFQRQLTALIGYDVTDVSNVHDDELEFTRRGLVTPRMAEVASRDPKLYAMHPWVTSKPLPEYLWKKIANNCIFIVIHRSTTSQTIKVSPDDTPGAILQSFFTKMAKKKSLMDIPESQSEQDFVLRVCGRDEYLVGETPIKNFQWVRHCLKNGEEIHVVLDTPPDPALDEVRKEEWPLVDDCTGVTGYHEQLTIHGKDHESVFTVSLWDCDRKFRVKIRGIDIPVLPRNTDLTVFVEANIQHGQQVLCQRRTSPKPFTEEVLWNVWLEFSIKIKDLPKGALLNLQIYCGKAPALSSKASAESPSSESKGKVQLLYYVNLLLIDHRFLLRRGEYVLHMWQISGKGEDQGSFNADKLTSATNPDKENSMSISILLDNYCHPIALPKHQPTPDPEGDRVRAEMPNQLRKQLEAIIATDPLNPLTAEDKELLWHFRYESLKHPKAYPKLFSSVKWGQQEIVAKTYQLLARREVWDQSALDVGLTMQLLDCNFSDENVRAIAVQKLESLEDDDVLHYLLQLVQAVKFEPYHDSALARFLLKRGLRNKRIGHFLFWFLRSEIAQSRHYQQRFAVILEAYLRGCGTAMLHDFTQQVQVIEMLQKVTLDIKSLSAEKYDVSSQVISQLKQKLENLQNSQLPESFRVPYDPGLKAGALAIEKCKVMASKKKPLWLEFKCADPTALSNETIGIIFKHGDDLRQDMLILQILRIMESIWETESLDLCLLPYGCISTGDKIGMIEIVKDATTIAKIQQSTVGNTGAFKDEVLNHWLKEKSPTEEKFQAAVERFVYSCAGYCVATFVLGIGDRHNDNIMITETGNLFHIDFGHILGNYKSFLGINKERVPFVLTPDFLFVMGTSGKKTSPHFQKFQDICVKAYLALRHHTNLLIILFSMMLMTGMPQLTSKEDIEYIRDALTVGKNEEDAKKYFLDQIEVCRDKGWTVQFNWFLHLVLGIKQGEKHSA
T1 sequence (Q9JHG7 whole entry): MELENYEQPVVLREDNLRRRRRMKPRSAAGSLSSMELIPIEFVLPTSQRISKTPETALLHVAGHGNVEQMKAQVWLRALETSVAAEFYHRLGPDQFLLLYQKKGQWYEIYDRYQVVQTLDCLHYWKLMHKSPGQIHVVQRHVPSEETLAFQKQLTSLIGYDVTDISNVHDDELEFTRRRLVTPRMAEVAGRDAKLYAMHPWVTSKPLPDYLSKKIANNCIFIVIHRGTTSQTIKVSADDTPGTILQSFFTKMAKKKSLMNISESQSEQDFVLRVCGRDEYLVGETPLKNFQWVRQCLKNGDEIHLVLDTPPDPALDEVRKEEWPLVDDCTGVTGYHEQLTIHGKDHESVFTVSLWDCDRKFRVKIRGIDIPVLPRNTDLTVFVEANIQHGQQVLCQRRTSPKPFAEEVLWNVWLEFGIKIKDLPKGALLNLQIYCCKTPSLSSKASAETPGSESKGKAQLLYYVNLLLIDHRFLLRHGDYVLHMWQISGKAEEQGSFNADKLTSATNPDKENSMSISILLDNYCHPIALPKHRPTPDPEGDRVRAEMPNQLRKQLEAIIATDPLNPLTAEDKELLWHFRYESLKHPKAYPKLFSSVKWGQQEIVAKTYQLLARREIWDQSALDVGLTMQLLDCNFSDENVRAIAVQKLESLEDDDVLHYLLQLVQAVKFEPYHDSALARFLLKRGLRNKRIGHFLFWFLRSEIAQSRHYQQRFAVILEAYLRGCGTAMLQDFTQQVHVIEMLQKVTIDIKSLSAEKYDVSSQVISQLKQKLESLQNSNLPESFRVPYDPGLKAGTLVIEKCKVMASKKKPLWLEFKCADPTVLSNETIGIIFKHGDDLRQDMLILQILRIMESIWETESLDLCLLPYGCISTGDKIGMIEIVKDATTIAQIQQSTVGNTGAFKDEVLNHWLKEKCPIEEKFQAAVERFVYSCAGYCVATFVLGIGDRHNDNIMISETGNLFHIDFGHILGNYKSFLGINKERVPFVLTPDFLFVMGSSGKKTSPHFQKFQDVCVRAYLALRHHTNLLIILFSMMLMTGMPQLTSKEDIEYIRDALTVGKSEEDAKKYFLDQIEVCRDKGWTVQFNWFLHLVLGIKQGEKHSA
T1 sequence (Q5SW28 whole entry partner): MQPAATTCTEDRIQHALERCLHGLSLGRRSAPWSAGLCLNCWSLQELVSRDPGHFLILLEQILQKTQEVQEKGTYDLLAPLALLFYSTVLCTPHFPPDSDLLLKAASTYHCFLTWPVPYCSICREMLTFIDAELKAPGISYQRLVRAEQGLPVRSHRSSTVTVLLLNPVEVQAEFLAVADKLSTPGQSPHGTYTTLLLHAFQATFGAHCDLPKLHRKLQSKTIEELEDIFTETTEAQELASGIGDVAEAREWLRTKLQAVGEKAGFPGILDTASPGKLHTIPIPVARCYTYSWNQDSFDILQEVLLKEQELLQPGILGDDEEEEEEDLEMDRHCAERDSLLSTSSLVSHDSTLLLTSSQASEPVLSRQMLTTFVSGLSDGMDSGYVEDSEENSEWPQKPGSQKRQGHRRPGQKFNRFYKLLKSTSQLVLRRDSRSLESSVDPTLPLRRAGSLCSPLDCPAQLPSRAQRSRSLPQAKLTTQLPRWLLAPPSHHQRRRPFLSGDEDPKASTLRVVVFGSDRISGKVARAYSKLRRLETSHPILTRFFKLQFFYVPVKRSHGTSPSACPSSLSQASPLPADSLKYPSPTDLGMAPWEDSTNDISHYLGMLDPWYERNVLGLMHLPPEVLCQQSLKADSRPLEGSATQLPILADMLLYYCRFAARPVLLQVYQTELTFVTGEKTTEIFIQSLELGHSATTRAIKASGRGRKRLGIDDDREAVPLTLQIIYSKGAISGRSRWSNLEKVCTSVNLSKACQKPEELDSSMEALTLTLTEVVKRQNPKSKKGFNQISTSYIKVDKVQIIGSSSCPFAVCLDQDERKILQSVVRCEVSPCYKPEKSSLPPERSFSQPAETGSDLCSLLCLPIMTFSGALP

Structure (SMILES)	IC50 (PI3Kγ) [nM]	IC50 (PI3K gamma) [nM]
CC[S@@+]([O-])c1cc(-c2sc(NC(C)=O)nc2C)cc2c1C(=O)N([C@@H](C)C1CC1)C2 (racemic) [Compound 13, N-(5-(2-((S)-1-cyclopropylethyl)-7-(ethylsulfinyl)-1-oxoisoindolin-5-yl)-4-methylthiazol-2-yl)acetamide]	3.1	22
CC(=O)Nc1nc(C)c(-c2cc3c(c([S+]([O-])C(C)C)c2)C(=O)N([C@@H](C)C2CC2)C3)s1 (mixture of isomers) [Compound 14, N-(5-(2-((S)-1-cyclopropylethyl)-7-(isopropylsulfinyl)-1-oxoisoindolin-5-yl)-4-methylthiazol-2-yl)acetamide]	4.2	27
CC(=O)Nc1nc(C)c(-c2cc3c(c([S+](C)[O-])c2)C(=O)N(C(C)(C)C)C3)s1 (racemic) [Compound 17, N-(5-(2-(tert-butyl)-7-(methylsulfinyl)-1-oxoisoindolin-5-yl)-4-methylthiazol-2-yl)acetamide]	4.5	118
Cc1nc(NC(=O)C(C)C)sc1-c1cc2c(c(P(C)(C)=O)c1)C(=O)N([C@@H](C)C1CC1)C2 [Compound 4, (S)-N-(5-(2-(1-cyclopropylethyl)-7-(dimethylphosphoryl)-1-oxoisoindolin-5-yl)-4-methylthiazol-2-yl)isobutyramide]	4.5	1850
CCP(=O)(CC)c1cc(-c2sc(NC(C)=O)nc2C)cc2c1C(=O)N([C@@H](C)C1CC1)C2 [Compound 5, (S)-N-(5-(2-(1-cyclopropylethyl)-7-(diethylphosphoryl)-1-oxoisoindolin-5-yl)-4-methylthiazol-2-yl)acetamide]	5.9	307
CC(=O)Nc1nc(C)c(-c2cc3c(c(N4CCCC4=O)n2)C(=O)N([C@@H](C)C2CC2)C3)s1 [Compound 25, (S)-N-(5-(2-(1-cyclopropylethyl)-3-oxo-4-(2-oxopyrrolidin-1-yl)-2,3-dihydro-M-pyrrolo[3,4-c]pyridin-6-yl)-4-methylthiazol-2-yl)acetamide]	3.8	446
CC(=O)Nc1nc(C)c(-c2cc3c(c(C)n2)C(=O)N([C@@H](C)C2CC2)C3)s1 [Compound 27, (S)-N-(5-(2-(1-cyclopropylethyl)-4-methyl-3-oxo-2,3-dihydro-1H-pyrrolo[3,4-c]pyridin-6-yl)-4-methylthiazol-2-yl)acetamide]	29	29

Results, then the molecule that gave them:

IC50 (PI3Kγ) [nM]	IC50 (PI3K gamma) [nM]	Structure (SMILES)
1.5	65	CC(=O)Nc1nc(C)c(-c2cc3c(c(NC(=O)N(C)C)n2)C(=O)N([C@@H](C)C2CC2)C3)s1 [Compound 28, (S)-N-(5-(2-(1-cyclopropylethyl)-4-(3,3-dimethylureido)-3-oxo-2,3-dihydro-1H-pyrrolo[3,4-c]pyridin-6-yl)-4-methylthiazol-2-yl)acetamide]
2.5	3240	CC(=O)Nc1nc(C)c(-c2cc3c(c(C(=O)N(C)C)n2)C(=O)N([C@@H](C)C2CC2)C3)s1 [Compound 29, (S)-6-(2-acetamido-4-methylthiazol-5-yl)-2-(1-cyclopropylethyl)-N,N-dimethyl-3-oxo-2,3-dihydro-1H-pyrrolo[3,4-c]pyridine-4-carboxamide]
2.2	208	CNC(=O)c1nc(-c2sc(NC(C)=O)nc2C)cc2c1C(=O)N([C@@H](C)C1CC1)C2 [Compound 32, (S)-6-(2-acetamido-4-methylthiazol-5-yl)-2-(1-cyclopropylethyl)-N-methyl-3-oxo-2,3-dihydro-1H-pyrrolo[3,4-c]pyridine-4-carboxamide]
3.7	271	CC(=O)Nc1nc(C)c(-c2cc3c(c(N4CCNCC4)n2)C(=O)N([C@@H](C)C2CC2)C3)s1 [Compound 39, (S)-N-(5-(2-(1-cyclopropylethyl)-3-oxo-4-(piperazin-1-yl)-2,3-dihydro-1H-pyrrolo[3,4-c]pyridin-6-yl)-4-methylthiazol-2-yl)acetamide]
0.84	14	CC(=O)Nc1nc(C)c(-c2cc3c(c(N4CC(O)C4)n2)C(=O)N([C@@H](C)C2CC2)C3)s1 [Compound 48, (S)-N-(5-(2-(1-cyclopropylethyl)-4-(3-hydroxyazetidin-1-yl)-3-oxo-2,3-dihydro-1H-pyrrolo[3,4-c]pyridin-6-yl)-4-methylthiazol-2-yl)acetamide]
1	38	CC(=O)Nc1nc(C)c(-c2cc3c(c(N4CC(S(C)(=O)=O)C4)n2)C(=O)N([C@@H](C)C2CC2)C3)s1 [Compound 49, (S)-N-(5-(2-(1-cyclopropylethyl)-4-(3-(methylsulfonyl)azetidin-1-yl)-3-oxo-2,3-dihydro-1H-pyrrolo[3,4-c]pyridin-6-yl)-4-methylthiazol-2-yl)acetamide]
1	20	CC(=O)Nc1nc(C)c(-c2cc3c(c(OCCO)n2)C(=O)N([C@@H](C)C2CC2)C3)s1 [Compound 50, (S)-N-(5-(2-(1-cyclopropylethyl)-4-(2-hydroxyethoxy)-3-oxo-2,3-dihydro-1H-pyrrolo[3,4-c]pyridin-6-yl)-4-methylthiazol-2-yl)acetamide]
1.1	12	CC(=O)Nc1nc(C)c(-c2cc3c(c(OC4COC4)n2)C(=O)N([C@@H](C)C2CC2)C3)s1 [Compound 52, (S)-N-(5-(2-(1-cyclopropylethyl)-4-(oxetan-3-yloxy)-3-oxo-2,3-dihydro-1H-pyrrolo[3,4-c]pyridin-6-yl)-4-methylthiazol-2-yl)acetamide]
1.8		CC(=O)Nc1nc(Cl)c(-c2cc3c(c(N4CCOCC4)n2)C(=O)N([C@@H](C)C2CC2)C3)s1 [Compound 53, (S)-N-(4-chloro-5-(2-(1-cyclopropylethyl)-4-morpholino-3-oxo-2,3-dihydro-1H-pyrrolo[3,4-c]pyridin-6-yl)thiazol-2-yl)acetamide]
4.6	17	CC(=O)Nc1nc(C)c(-c2cc3c(c(CN4CCOCC4)n2)C(=O)N([C@@H](C)C2CC2)C3)s1 [Compound 54, (S)-N-(5-(2-(1-cyclopropylethyl)-4-(morpholinomethyl)-3-oxo-2,3-dihydro-1H-pyrrolo[3,4-c]pyridin-6-yl)-4-methylthiazol-2-yl)acetamide]
1.7	18	CC(=O)Nc1nc(C)c(-c2cc3c(c(C(C)N4CCOCC4)n2)C(=O)N([C@@H](C)C2CC2)C3)s1 (stereo partly drawn) [Compound 55, N-(5-(2-((S)-1-cyclopropylethyl)-4-(1-morpholinoethyl)-3-oxo-2,3-dihydro-1H-pyrrolo[3,4-c]pyridin-6-yl)-4-methylthiazol-2-yl)acetamide]

Source: patent US11542262B2, “Phosphatidylinositol 3-kinase inhibitors” (NANJING ZHENGXIANG PHARMACEUTICALS CO., LTD., priority 2019, dated 2023)
